# Source: patent US5929027A, “Physiologically active polypeptide-containing pharmaceutical composition” (priority 1991, dated 1999)
# How the values were obtained:
# [1] = Beagle dog, sublingual, tartaric acid 10 w/v % + S-570 2 w/v %, FIG. 8
# [2] = test system: calcium and phosphur in blood; assay: Experiment 11: blood calcium and phosphur concentration after sublingual rapidly soluble composition; type: in vivo; conditions: Beagle dog, tartaric acid 10 w/v % + S-570 2 w/v %, FIG. 8
# Source text: The results are shown in the accompanying FIG. 8.
# in vivo = conditions: male, Beagle, dog, serum, 1 mg, Maximum blood concentration of human calcitonin in average (pg/ml), sublingual rapidly soluble composition
# Protocol: Each one of the test material was administered by a sublingual route to a male Beagle dog which fasted over-night, and the blood was collected at intervals (after 10, 20, 30, 45 and 60 minutes). After the serum was separated, the calcium concentration in serum was measured with Calcium C kit (manufactured by Wako Junyaku K. K., Japan) (n=3).
# In the same manner as in Experiment 8, the test material was administered to the dog, and the blood was collected at intervals. After the serum was separated, the human calcitonin concentration in serum was measured by RIA.
compound,measurement,setting,value
CC[C@H](C)[C@H](NC(=O)[C@H](C)NC(=O)[C@@H](NC(=O)[C@H](CCC(N)=O)NC(=O)[C@@H]1CCCN1C(=O)[C@H](Cc1ccccc1)NC(=O)[C@@H](NC(=O)[C@H](Cc1c[nH]cn1)NC(=O)[C@H](Cc1ccccc1)NC(=O)[C@H](CCCCN)NC(=O)[C@H](CC(N)=O)NC(=O)[C@H](Cc1ccccc1)NC(=O)[C@H](CC(=O)O)NC(=O)[C@H](CCC(N)=O)NC(=O)[C@@H](NC(=O)[C@H](Cc1ccc(O)cc1)NC(=O)[C@@H](NC(=O)CNC(=O)[C@H](CC(C)C)NC(=O)[C@H](CCSC)NC(=O)[C@@H]1CSSC[C@H](N)C(=O)NCC(=O)N[C@@H](CC(N)=O)C(=O)N[C@@H](CC(C)C)C(=O)N[C@@H](CO)C(=O)N[C@@H]([C@@H](C)O)C(=O)N1)[C@@H](C)O)[C@@H](C)O)[C@@H](C)O)[C@@H](C)O)C(=O)NCC(=O)N[C@H](C(=O)NCC(=O)N[C@@H](C)C(=O)N1CCC[C@H]1C(N)=O)C(C)C [human calcitonin],blood human calcitonin concentration,[1],increase
same,concentration of calcium in blood,[2],lowered
same,concentration of phosphur in blood,[2],lowered
same,Cmax,"in vivo; S-970 1.0 w/v %, citric acid 2.0 w/v %",0.086 ng/mL
same,Cmax,"in vivo; S-970 2.5 w/v %, citric acid 5.0 w/v %",0.191 ng/mL
same,Cmax,"in vivo; S-970 5.0 w/v %, citric acid 10.0 w/v %",1.12 ng/mL
same,Cmax,"in vivo; S-970 10.0 w/v %, citric acid 20.0 w/v %",1.65 ng/mL
